Experimental data published in patent US10266537B2, “3-acetylenyl-pyrazole-pyrimidine derivative, and preparation method therefor and uses thereof” (Si Chuan University, priority 2015, dated 2019).
Where two headings read alike, the source gives them in different places. One block for each compound: values may come before it.

Legend:
[1] = molecular target: JAK2 (Homo sapiens (Human), UniProt O60674); test: Kinase inhibition assay (KinaseProfiler, 33P-ATP); format: biochemical
[2] = test system: MV4-11; test: Cell proliferation inhibition assay (MTT); format: cell-based; conditions: Homo sapiens, read-out: Proliferation inhibitory activity IC50
[3] = test system: HCT116; test: Cell proliferation inhibition assay (MTT); format: cell-based; conditions: Homo sapiens, read-out: Proliferation inhibitory activity IC50
[4] = molecular target: B-Raf(V600E) (Homo sapiens (Human), UniProt P15056, V600E); test: Kinase inhibition assay (KinaseProfiler, 33P-ATP); conditions: ATP at Km
[5] = molecular target: TAK1 (Homo sapiens (Human), UniProt O43318); test: Kinase inhibition assay (KinaseProfiler, 33P-ATP); format: biochemical; conditions: for remaining activity at 10 µM: TAK1(h), read-out: The percentage of the remaining active protein
[6] = molecular target: EphA1(h) (Homo sapiens (Human), UniProt P21709); test: Kinase inhibition assay (KinaseProfiler, 33P-ATP); format: biochemical; conditions: read-out: The percentage of the remaining active protein
[7] = molecular target: JAK3(h) (Homo sapiens (Human), UniProt P52333); test: Kinase inhibition assay (KinaseProfiler, 33P-ATP); format: biochemical; conditions: read-out: The percentage of the remaining active protein
[8] = test system: MAPK1(h); test: Kinase inhibition assay (KinaseProfiler, 33P-ATP); format: biochemical, human
[9] = test system: HepG2; test: Cell proliferation inhibition assay (MTT); format: cell-based; conditions: Homo sapiens, 72 hours, read-out: Proliferation inhibitory activity IC50
[10] = molecular target: cKit (V560G) (Homo sapiens (Human), UniProt P10721, V560G); test: Kinase inhibition assay (KinaseProfiler, 33P-ATP); format: biochemical; conditions: cKit(V560G)(h), read-out: The percentage of the remaining active protein
[11] = molecular target: FGFR3 (Homo sapiens (Human), UniProt P22607); test: Kinase inhibition assay (KinaseProfiler, 33P-ATP); format: biochemical; conditions: FGFR3(h), read-out: The percentage of the remaining active protein
[12] = test system: DU145; test: Cell proliferation inhibition assay (MTT); format: cell-based; conditions: Homo sapiens, DU-145, 72 hours, read-out: Proliferation inhibitory activity IC50
[13] = molecular target: Abl (Q252H)(h) (Homo sapiens (Human), UniProt P00519, Q252H); test: Kinase inhibition assay (KinaseProfiler, 33P-ATP); format: biochemical; conditions: read-out: The percentage of the remaining active protein
[14] = molecular target: AMPKα1(h) (Homo sapiens (Human), UniProt Q13131); test: Kinase inhibition assay (KinaseProfiler, 33P-ATP); format: biochemical; conditions: read-out: The percentage of the remaining active protein
[15] = molecular target: CaMKIIγ(h) (Homo sapiens (Human), UniProt Q13555); test: Kinase inhibition assay (KinaseProfiler, 33P-ATP); format: biochemical; conditions: read-out: The percentage of the remaining active protein
[16] = molecular target: CHK2(I157T)(h) (Homo sapiens (Human), UniProt O96017, I157T); test: Kinase inhibition assay (KinaseProfiler, 33P-ATP); format: biochemical; conditions: read-out: The percentage of the remaining active protein
[17] = molecular target: DAPK1(h) (Homo sapiens (Human), UniProt P53355); test: Kinase inhibition assay (KinaseProfiler, 33P-ATP); format: biochemical; conditions: read-out: The percentage of the remaining active protein
[18] = molecular target: DYRK1A(h) (Homo sapiens (Human), UniProt Q13627); test: Kinase inhibition assay (KinaseProfiler, 33P-ATP); format: biochemical; conditions: read-out: The percentage of the remaining active protein
[19] = molecular target: MAPK2(m) (Mus musculus (Mouse), UniProt P63085); test: Kinase inhibition assay (KinaseProfiler, 33P-ATP); format: biochemical; conditions: read-out: The percentage of the remaining active protein
[20] = test system: MLCK(h); test: Kinase inhibition assay (KinaseProfiler, 33P-ATP); format: biochemical, human; conditions: 10 μM
[21] = molecular target: mTOR/FKBP12(h) (Homo sapiens (Human), UniProt P42345); test: Kinase inhibition assay (KinaseProfiler, 33P-ATP); format: biochemical; conditions: read-out: The percentage of the remaining active protein
[22] = molecular target: NEK3(h) (Homo sapiens (Human), UniProt P51956); test: Kinase inhibition assay (KinaseProfiler, 33P-ATP); format: biochemical; conditions: read-out: The percentage of the remaining active protein
[23] = molecular target: NEK11(h) (Homo sapiens (Human), UniProt Q8NG66); test: Kinase inhibition assay (KinaseProfiler, 33P-ATP); format: biochemical; conditions: read-out: The percentage of the remaining active protein
[24] = molecular target: PAK2(h) (Homo sapiens (Human), UniProt Q13177); test: Kinase inhibition assay (KinaseProfiler, 33P-ATP); format: biochemical; conditions: read-out: The percentage of the remaining active protein
[25] = molecular target: Plk1(h) (Homo sapiens (Human), UniProt P53350); test: Kinase inhibition assay (KinaseProfiler, 33P-ATP); format: biochemical; conditions: read-out: The percentage of the remaining active protein
[26] = molecular target: Plk3(h) (Homo sapiens (Human), UniProt Q9H4B4); test: Kinase inhibition assay (KinaseProfiler, 33P-ATP); format: biochemical; conditions: read-out: The percentage of the remaining active protein
[27] = molecular target: Ros(h) (Homo sapiens (Human), UniProt P08922); test: Kinase inhibition assay (KinaseProfiler, 33P-ATP); format: biochemical; conditions: read-out: The percentage of the remaining active protein
[28] = molecular target: Snk(h) (Homo sapiens (Human), UniProt Q9NYY3); test: Kinase inhibition assay (KinaseProfiler, 33P-ATP); format: biochemical; conditions: read-out: The percentage of the remaining active protein
[29] = molecular target: TAO1(h) (Homo sapiens (Human), UniProt Q7L7X3); test: Kinase inhibition assay (KinaseProfiler, 33P-ATP); format: biochemical; conditions: read-out: The percentage of the remaining active protein
[30] = molecular target: TGFBR1(h) (Homo sapiens (Human), UniProt P36897); test: Kinase inhibition assay (KinaseProfiler, 33P-ATP); format: biochemical; conditions: read-out: The percentage of the remaining active protein
[31] = molecular target: TLK2(h) (Homo sapiens (Human), UniProt Q86UE8); test: Kinase inhibition assay (KinaseProfiler, 33P-ATP); format: biochemical; conditions: read-out: The percentage of the remaining active protein
[32] = molecular target: TSSK2(h) (Homo sapiens (Human), UniProt Q96PF2); test: Kinase inhibition assay (KinaseProfiler, 33P-ATP); format: biochemical; conditions: read-out: The percentage of the remaining active protein
[33] = molecular target: TYK2(h) (Homo sapiens (Human), UniProt P29597); test: Kinase inhibition assay (KinaseProfiler, 33P-ATP); format: biochemical; conditions: read-out: The percentage of the remaining active protein
[34] = molecular target: ULK2(h) (Homo sapiens (Human), UniProt Q8IYT8); test: Kinase inhibition assay (KinaseProfiler, 33P-ATP); format: biochemical; conditions: read-out: The percentage of the remaining active protein
[35] = molecular target: Wee1(h) (Homo sapiens (Human), UniProt P30291); test: Kinase inhibition assay (KinaseProfiler, 33P-ATP); format: biochemical; conditions: read-out: The percentage of the remaining active protein
[36] = molecular target: PIP5K1g(h) (Homo sapiens (Human), UniProt O60331); test: Kinase inhibition assay (KinaseProfiler, 33P-ATP); format: biochemical; conditions: read-out: The percentage of the remaining active protein

TAK1, sequence (O43318 1-303): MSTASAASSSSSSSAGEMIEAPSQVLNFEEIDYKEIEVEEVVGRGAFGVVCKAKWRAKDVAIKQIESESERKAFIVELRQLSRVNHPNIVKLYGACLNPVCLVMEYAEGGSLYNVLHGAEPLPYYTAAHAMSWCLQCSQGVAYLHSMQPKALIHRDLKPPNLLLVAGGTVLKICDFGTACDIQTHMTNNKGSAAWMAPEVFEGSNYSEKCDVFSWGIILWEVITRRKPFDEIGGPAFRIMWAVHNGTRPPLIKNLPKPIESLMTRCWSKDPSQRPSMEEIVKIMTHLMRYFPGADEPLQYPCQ
JAK2, sequence (O60674 whole entry): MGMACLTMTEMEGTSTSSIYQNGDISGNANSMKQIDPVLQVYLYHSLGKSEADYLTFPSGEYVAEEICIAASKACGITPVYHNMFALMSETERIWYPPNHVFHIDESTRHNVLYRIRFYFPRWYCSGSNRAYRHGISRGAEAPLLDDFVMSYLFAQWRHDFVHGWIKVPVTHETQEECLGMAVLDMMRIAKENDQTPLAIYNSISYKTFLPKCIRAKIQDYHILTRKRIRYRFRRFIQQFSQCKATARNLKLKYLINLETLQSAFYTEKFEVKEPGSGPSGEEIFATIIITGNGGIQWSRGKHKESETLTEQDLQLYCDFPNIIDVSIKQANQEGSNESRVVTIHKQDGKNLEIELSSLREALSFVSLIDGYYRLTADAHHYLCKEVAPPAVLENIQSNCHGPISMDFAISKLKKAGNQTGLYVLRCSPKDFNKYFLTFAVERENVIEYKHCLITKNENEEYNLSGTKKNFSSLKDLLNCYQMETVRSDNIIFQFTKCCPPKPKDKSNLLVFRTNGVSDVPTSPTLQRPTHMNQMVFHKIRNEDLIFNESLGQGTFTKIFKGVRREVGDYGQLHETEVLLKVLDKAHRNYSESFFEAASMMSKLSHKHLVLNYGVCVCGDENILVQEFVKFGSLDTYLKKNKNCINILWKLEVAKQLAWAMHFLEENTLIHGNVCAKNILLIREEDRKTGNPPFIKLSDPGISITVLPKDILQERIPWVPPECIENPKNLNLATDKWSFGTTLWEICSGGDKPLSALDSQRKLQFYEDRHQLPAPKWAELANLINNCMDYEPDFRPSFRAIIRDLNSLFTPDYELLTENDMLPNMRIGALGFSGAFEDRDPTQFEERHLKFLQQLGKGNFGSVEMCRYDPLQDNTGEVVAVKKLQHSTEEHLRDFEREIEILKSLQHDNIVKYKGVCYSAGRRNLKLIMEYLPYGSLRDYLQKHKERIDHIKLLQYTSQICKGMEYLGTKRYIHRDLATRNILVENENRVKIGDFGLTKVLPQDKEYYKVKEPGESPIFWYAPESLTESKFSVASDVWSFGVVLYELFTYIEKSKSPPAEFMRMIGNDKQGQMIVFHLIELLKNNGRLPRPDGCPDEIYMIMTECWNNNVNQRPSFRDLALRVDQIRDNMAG
JAK3(h), sequence (P52333 whole entry): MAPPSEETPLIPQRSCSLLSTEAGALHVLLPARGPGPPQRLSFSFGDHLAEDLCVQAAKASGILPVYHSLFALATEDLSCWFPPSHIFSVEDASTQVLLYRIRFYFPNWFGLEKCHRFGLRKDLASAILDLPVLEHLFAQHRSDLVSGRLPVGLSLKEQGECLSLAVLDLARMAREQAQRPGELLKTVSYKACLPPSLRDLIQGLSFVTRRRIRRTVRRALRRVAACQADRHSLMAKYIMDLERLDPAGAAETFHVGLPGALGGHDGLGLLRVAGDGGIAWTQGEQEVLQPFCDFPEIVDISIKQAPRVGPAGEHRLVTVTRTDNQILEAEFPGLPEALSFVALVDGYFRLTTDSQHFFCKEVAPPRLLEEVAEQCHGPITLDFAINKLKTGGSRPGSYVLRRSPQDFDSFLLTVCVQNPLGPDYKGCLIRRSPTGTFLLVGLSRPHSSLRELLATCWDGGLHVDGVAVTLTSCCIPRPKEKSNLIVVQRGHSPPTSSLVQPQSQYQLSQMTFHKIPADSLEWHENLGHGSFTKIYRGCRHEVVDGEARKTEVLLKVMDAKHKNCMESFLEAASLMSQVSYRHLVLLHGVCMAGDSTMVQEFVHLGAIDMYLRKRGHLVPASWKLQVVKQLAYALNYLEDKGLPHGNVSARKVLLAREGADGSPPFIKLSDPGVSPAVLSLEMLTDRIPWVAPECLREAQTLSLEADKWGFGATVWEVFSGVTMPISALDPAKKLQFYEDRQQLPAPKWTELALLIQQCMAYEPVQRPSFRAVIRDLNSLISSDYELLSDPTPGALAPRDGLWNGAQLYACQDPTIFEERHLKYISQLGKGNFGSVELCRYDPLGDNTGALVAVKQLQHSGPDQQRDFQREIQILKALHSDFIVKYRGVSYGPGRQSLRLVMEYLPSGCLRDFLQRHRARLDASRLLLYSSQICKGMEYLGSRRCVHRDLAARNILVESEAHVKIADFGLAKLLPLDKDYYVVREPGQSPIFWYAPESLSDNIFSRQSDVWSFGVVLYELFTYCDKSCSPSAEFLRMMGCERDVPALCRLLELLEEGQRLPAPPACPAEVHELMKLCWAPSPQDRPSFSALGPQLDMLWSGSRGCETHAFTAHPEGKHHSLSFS
EphA1(h), sequence (P21709 26-976): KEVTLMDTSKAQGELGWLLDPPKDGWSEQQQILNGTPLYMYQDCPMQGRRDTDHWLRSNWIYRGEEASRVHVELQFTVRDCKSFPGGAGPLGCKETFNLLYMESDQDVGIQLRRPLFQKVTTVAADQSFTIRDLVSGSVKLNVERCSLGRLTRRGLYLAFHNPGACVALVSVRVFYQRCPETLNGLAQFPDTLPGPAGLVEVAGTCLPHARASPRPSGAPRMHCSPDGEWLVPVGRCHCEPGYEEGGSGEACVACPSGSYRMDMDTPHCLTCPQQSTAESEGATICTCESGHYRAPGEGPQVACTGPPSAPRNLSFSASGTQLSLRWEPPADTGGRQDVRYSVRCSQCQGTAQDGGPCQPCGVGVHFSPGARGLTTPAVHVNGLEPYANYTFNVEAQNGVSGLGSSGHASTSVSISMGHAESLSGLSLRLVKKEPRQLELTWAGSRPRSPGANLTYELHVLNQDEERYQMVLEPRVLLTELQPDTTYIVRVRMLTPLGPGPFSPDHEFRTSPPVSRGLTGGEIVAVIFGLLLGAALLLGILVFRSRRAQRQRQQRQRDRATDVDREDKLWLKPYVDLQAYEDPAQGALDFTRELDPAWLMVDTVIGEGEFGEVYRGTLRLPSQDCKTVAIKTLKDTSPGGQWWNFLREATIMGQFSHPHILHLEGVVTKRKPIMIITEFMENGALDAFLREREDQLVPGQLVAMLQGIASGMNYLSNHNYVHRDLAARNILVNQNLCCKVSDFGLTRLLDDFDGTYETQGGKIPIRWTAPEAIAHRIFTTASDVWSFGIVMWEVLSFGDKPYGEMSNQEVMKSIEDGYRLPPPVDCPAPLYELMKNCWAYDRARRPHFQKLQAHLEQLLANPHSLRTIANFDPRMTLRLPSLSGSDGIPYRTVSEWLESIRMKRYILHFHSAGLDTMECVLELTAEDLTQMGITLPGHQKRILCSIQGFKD
B-Raf(V600E), sequence (P15056 whole entry V600E): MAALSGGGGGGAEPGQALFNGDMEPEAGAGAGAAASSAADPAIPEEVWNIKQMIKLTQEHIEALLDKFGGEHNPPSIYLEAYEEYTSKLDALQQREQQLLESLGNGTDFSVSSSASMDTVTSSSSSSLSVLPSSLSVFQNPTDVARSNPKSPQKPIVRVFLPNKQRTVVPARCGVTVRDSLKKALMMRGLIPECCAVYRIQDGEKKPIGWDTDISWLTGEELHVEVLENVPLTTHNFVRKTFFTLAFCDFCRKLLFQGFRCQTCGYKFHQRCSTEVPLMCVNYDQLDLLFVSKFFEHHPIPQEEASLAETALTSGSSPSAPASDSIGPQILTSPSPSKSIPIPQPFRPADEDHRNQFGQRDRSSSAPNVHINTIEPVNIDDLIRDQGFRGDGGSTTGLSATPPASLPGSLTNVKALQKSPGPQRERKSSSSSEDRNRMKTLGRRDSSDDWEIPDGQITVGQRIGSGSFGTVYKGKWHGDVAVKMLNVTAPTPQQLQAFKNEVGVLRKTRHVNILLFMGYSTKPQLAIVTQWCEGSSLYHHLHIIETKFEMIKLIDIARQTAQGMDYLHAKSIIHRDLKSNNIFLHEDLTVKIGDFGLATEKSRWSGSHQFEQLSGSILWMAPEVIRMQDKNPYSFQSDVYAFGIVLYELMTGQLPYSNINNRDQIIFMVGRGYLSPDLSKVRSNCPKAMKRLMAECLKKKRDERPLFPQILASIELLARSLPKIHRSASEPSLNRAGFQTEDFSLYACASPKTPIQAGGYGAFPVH
Plk1(h), sequence (P53350 whole entry): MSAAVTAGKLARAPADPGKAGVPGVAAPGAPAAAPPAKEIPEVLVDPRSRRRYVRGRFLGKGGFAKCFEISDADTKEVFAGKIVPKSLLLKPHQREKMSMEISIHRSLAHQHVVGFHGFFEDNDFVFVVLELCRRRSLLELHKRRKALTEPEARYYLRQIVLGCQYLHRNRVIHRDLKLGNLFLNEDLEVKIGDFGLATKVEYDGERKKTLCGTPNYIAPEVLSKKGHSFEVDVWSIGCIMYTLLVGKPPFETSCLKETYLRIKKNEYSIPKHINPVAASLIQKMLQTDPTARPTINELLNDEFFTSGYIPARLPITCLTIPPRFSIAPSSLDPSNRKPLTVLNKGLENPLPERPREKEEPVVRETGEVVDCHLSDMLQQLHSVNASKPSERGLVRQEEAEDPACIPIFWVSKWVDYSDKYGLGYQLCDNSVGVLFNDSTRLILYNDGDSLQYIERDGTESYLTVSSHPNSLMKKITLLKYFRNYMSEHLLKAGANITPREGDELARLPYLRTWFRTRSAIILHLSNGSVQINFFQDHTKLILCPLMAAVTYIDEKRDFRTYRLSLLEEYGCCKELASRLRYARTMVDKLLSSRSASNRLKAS

Compound: CCn1nc(C#Cc2cc(C(=O)Nc3ccc(CN4CCN(C)CC4)c(C(F)(F)F)c3)ccc2C)c2c(N)ncnc21 [Compound 3]
IC50 ([1]; JAK2, ATP at Km): 2910 nM | IC50 ([2]; MV4-11, 72 h): 20 nM | IC50 ([3]; HCT-116, 72 h): 178 nM | IC50 [4]: 15 nM

remaining activity at 10 µM ([5]; compound at 10 μM): 2% | IC50 ([5]; TAK1, ATP at Km): 203 nM | remaining activity at 10 µM ([6]; compound at 10 μM): 1% | remaining activity at 10 µM ([7]; compound at 10 μM): 29% | The percentage of the remaining active protein ([8]; compound at 10 μM): 66% | IC50 [9]: 6170 nM | IC50 ([3]; HCT-116, HCT116, MTT, 72 hours): 230 nM | IC50 [4]: 5 nM
Compound: Cc1ccc(NC(=O)c2cccc(C(F)(F)F)c2)cc1C#Cc1nn(C2CCN(C)CC2)c2ncnc(N)c12 [Compound 31]

remaining activity at 10 µM ([5]; 10 μM): 1% | remaining activity at 10 µM ([1]; JAK2(h), 10 μM, read-out: The percentage of the remaining active protein): 64% | remaining activity at 10 µM ([6]; 10 μM): 1% | remaining activity at 10 µM ([7]; 10 μM): 7% | The percentage of the remaining active protein ([8]; 10 μM): 87% | remaining activity at 10 µM [10]: 0% | remaining activity at 10 µM [11]: 3% | IC50 ([2]; MV4-11, MTT, 72 hours): 138 nM | IC50 [9]: ~10000 nM | IC50 [12]: > 10000 nM | remaining activity at 10 µM [13]: 2% | remaining activity at 10 µM [14]: 109% | remaining activity at 10 µM [15]: 90% | remaining activity at 10 µM [16]: 103% | remaining activity at 10 µM [17]: 97% | remaining activity at 10 µM [18]: 95% | remaining activity at 10 µM [19]: 101% | The percentage of the remaining active protein [20]: 62% | remaining activity at 10 µM [21]: 119% | remaining activity at 10 µM [22]: 102% | remaining activity at 10 µM [23]: 50% | remaining activity at 10 µM [24]: 68% | remaining activity at 10 µM [25]: 92% | remaining activity at 10 µM [26]: 93% | remaining activity at 10 µM [27]: 82% | remaining activity at 10 µM [28]: 109% | remaining activity at 10 µM [29]: 18% | remaining activity at 10 µM [30]: 105% | remaining activity at 10 µM [31]: 93% | remaining activity at 10 µM [32]: 96% | remaining activity at 10 µM [33]: 36% | remaining activity at 10 µM [34]: 100% | remaining activity at 10 µM [35]: 95% | remaining activity at 10 µM [36]: 98%
Compound: Cc1ccc(NC(=O)c2ccc(C)c(C(F)(F)F)c2)cc1C#Cc1nn([C@H]2CC[C@H](O)CC2)c2ncnc(N)c12 [Compound 93]
